In US20080206311A1, “Sucrase Activity Inhibitor, Glucoamylase Activity Inhibitor and Food and Feed Containing the Same” (MITSUI SUGAR CO., LTD., priority 2005, published 2008):

Legend:
lactase = target: T1, lactase (Rattus norvegicus, UniProt Q02401); test: Lactase activity inhibition with rat small-intestinal enzyme liquid, substrate lactose; format: biochemical; settings: 5% lactose + 5% test sample
T1 construct: tissue Sigma Corporation; host or cells: rat small intestine (acetone powder), buffer extract, unpurified
T1 sequence (Q02401 868-1928): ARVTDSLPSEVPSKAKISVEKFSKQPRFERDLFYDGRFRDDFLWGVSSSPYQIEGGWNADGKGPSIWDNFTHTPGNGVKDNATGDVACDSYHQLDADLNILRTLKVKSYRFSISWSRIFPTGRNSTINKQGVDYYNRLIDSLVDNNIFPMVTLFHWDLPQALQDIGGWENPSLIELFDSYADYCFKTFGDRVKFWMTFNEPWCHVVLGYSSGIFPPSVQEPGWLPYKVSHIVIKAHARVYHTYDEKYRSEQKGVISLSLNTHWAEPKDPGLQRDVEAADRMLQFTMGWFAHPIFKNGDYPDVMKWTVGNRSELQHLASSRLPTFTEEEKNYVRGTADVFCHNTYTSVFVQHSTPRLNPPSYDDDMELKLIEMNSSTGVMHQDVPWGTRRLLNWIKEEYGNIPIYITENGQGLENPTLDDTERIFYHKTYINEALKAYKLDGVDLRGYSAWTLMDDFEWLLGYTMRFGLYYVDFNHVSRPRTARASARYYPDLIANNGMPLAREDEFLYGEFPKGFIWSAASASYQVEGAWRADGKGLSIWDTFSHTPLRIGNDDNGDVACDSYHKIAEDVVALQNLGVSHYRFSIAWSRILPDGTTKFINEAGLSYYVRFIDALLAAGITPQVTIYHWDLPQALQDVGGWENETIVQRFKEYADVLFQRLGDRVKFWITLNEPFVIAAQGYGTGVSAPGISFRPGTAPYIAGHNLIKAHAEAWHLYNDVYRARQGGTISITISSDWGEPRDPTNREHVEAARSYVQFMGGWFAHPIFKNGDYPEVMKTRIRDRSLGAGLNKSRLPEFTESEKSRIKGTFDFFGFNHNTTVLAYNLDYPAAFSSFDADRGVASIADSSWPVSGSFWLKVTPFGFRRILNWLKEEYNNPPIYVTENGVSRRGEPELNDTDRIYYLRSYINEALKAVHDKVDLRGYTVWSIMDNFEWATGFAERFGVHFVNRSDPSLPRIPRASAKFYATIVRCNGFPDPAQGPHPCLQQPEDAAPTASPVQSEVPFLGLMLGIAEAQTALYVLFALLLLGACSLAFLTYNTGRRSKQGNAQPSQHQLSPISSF
Procedure: Two grams of rat small-intestinal acetone powder (ex Sigma Corporation) were dissolved in 20 ml of 0.1 M phosphate buffer (pH 6.8), left standing one day at 5° C., and subsequently subjected to centrifugal separation (8000 rpm×15 min.). The supernatant was filtered through a 0.8 μm membrane filter to obtain a small-intestinal enzyme liquid. This liquid contained a mixture of enzymes present in small intestine, such as sucrose, glucoamylase, maltase, and isomaltase.
Each 0.25 ml of the small-intestinal enzyme liquid was added to each 5 ml of Solutions 1 through 5 and placed in a water bath at 37° C. to allow them to react for 60 min. while shaken at 60 strokes/min. After the reaction, they were heated in a boiling water bath for 3 min. for inactivation of the enzymes.
The glucose concentration in each solution after the reaction was measured using the F-kit Glucose (ex Roche). A liberated glucose concentration (g/l) was calculated by subtracting the blank value (0.1 M phosphate buffer alone) and the concentration of glucose originally contained in the test sample from each glucose concentration measured.
Next, each of the liberated glucose concentration was input in the following equation to obtain decomposition inhibition ratio for maltase and sucrose. In the present tests, the substrates and the inhibitors were decomposed by enzymes present in the small-intestinal enzyme liquid. However, the enzymes decomposing the substrates are different from the enzymes decomposing the inhibitors. The decomposition inhibition ratio was determined as a measure for the inhibitory effect. When the inhibitor was added, the glucose concentration was lower than that seen when the substrate alone was reacted. A higher decomposition inhibition ratio means a stronger inhibitory effect.
Decomposition inhibition ratio,%={(A+B)−(AB)}+(A+B)×100 [Equation 1]
wherein (A+B) indicates a sum of a liberated glucose concentration in the control solution containing the test sample alone after the reaction (A) and a liberated glucose concentration in the control solution containing the substrate alone after the reaction (B); and (AB) indicates a liberated glucose concentration in the test solution containing the test sample (A) and the substrate (B), after the reaction.
The procedures in Example 1 were repeated with the exception that palatinit, palatinose or isomaltose was used as a test sample and lactose was used as a substrate. The test samples and the substrate were dissolved in 0.1 M phosphate buffer (pH 6.8) to attain the concentration shown in Table 5 to thereby prepare three test solutions. Besides, each of the test samples or the substrate was dissolved in 0.1 M phosphate buffer (pH 6.8) to attain the concentration shown in Table 5 to thereby prepare control solutions. Each 5 ml of the aforementioned test solutions and the control solutions was subjected to the enzymatic reaction according to the same procedures as in Example 1. The glucose concentration, the fructose concentration and the galactose concentration were measured. The galactose concentration was measured using F-kit Galactose (ex Roche). The liberated galactose concentration, g/l, was calculated by subtracting the blank value (0.1 M phosphate buffer alone) from the measured galactose concentration.

glucoamylase = test: Ratio of inhibitor to the substrate dextrin (Examples 10, 11); format: biochemical, rat
Procedure: Each 0.15 ml of a small intestinal enzyme solution was added to each 2.5 ml of the aforementioned 20 samples, each mixture, and placed in a water bath at 37° C. to allow reaction for 10 minutes while shaken at 60 strokes/min. At the end of the reaction, the mixture was heated in a boiling water bath for 3 min. for inactivation of the enzyme. As a blank, 0.15 ml of the intestinal enzyme solution was added to 0.1 M phosphate buffer (pH 6.8) and the enzyme was inactivated immediately.
After the reaction, the glucose concentration in each solution was measured using the F-kit Glucose (ex Roche) as in Example 1.
The procedures in Example 8 were repeated with the exception that sixteen samples with the concentrations shown in Table 13, Samples C-1 through C-16, were dissolved in 0.1 M phosphate buffer (pH 6.8) to a final volume of 2.5 ml.
The procedures in Example 8 were repeated with the exception that sixteen samples with the concentrations shown in Table 14, Samples D-1 through D-16, were dissolved in 0.1 M phosphate buffer (pH 6.8) to a final volume of 2.5 ml.

SMILES: OC[C@H]1O[C@H](OC[C@H]2OC(O)(CO)[C@@H](O)[C@@H]2O)[C@H](O)[C@@H](O)[C@@H]1O (stereo partly shown) [palatinose, isomaltulose]
- Decomposition inhibition ratio, %, against lactase (lactase): 3%
- Lactase activity inhibitory effect (in words) (lactase): no lactose inhibitory effect was appreciable
- Liberated fructose concentration (lactase): 0.23 g/L
- Liberated galactose concentration (lactase): 0.12 g/L
- Liberated glucose concentration (lactase): 0.33 g/L
- Ratio of inhibitor added relative to the weight of dextrin at which the inhibitory effect on decomposition of dextrin was seen at all dextrin concentrations (glucoamylase; dextrin 0.5%, 2%, 5%, 10%, FIG. 8 (palatinose), FIG. 9 (palatinit)): above 10%
- Inhibitory effect on decomposition of dextrin (FIG. 8) (glucoamylase; palatinose 5% relative to the weight of dextrin, dextrin concentration 10%): no inhibitory effect on decomposition of dextrin was seen
